Assay results: the SangsterLogP compilation

Experiment: method code SF-HPLC, from DOI: 10.1016/s0021-9673(01)84554-4
Conditions: not given

Row | SMILES | logP
1 | CC1CC2C3CCC4=CC(=O)C=CC4(C)C3(F)C(O)CC2(C)C1(O)C(=O)NCCCCCCCCN (stereo unspecified) | 3.72
2 | CC1CC2C3CCC4=CC(=O)C=CC4(C)C3(F)C(O)CC2(C)C1(O)C(=O)NCCCCCC(=O)O (stereo unspecified) | 2.29
3 | CC1CC2C3CCC4=CC(=O)C=CC4(C)C3(F)C(O)CC2(C)C1(O)C(=O)NCCCCN (stereo unspecified) | 2.3
4 | CC1CC2C3CCC4=CC(=O)C=CC4(C)C3(F)C(O)CC2(C)C1(O)C(=O)NCCCCCCN (stereo unspecified) | 2.61
5 | CCCNCCNC(=O)C1(O)C(C)CC2C3CCC4=CC(=O)C=CC4(C)C3(F)C(O)CC21C (stereo unspecified) | 3.94
6 | CC1CC2C3CCC4=CC(=O)C=CC4(C)C3(F)C(O)CC2(C)C1(O)C(=O)NCC(=O)O (stereo unspecified) | 1.2
7 | CC1CC2C3CCC4=CC(=O)C=CC4(C)C3(F)C(O)CC2(C)C1(O)C(=O)NCCCCCCCCCN (stereo unspecified) | 4.13

Same assay, conditions: pH 7.4

Row | SMILES | logD
8 | CC1CC2C3CCC4=CC(=O)C=CC4(C)C3(F)C(O)CC2(C)C1(O)C(=O)NCc1ccccc1 (stereo unspecified) | 3.28
9 | C#CCNC(=O)C1(O)C(C)CC2C3CCC4=CC(=O)C=CC4(C)C3(F)C(O)CC21C (stereo unspecified) | 2
10 | CNC(=O)C1(O)C(C)CC2C3CCC4=CC(=O)C=CC4(C)C3(F)C(O)CC21C (stereo unspecified) | 1.54
11 | CC(C)CCNC(=O)C1(O)C(C)CC2C3CCC4=CC(=O)C=CC4(C)C3(F)C(O)CC21C (stereo unspecified) | 3.74
12 | CCCCCNC(=O)C1(O)C(C)CC2C3CCC4=CC(=O)C=CC4(C)C3(F)C(O)CC21C (stereo unspecified) | 3.64
13 | CC1CC2C3CCC4=CC(=O)C=CC4(C)C3(F)C(O)CC2(C)C1(O)C(=O)NC(C)(C)C (stereo unspecified) | 3.2
14 | CC1CC2C3CCC4=CC(=O)C=CC4(C)C3(F)C(O)CC2(C)C1(O)C(=O)NC1CCCCC1 (stereo unspecified) | 3.54
15 | CC1CC2C3CCC4=CC(=O)C=CC4(C)C3(F)C(O)CC2(C)C1(O)C(=O)NCCc1ccccc1 (stereo unspecified) | 3.66
16 | CCOC(CNC(=O)C1(O)C(C)CC2C3CCC4=CC(=O)C=CC4(C)C3(F)C(O)CC21C)OCC (stereo unspecified) | 2.65
17 | CC1CC2C3CCC4=CC(=O)C=CC4(C)C3(F)C(O)CC2(C)C1(O)C(=O)NCCCl (stereo unspecified) | 2.73
18 | CC(C)CCCNC(=O)C1(O)C(C)CC2C3CCC4=CC(=O)C=CC4(C)C3(F)C(O)CC21C (stereo unspecified) | 3.93
19 | CCCNC(=O)C1(O)C(C)CC2C3CCC4=CC(=O)C=CC4(C)C3(F)C(O)CC21C (stereo unspecified) | 2.59
20 | C[C@@H]1C[C@H]2[C@@H]3CCC4=CC(=O)C=C[C@]4(C)[C@@]3(F)[C@@H](O)C[C@]2(C)[C@@]1(O)C(N)=O | 1.41
21 | CC1CC2C3CCC4=CC(=O)C=CC4(C)C3(F)C(O)CC2(C)C1(O)C(=O)NCC#N (stereo unspecified) | 1.57
22 | COC(=O)C(Cc1ccccc1)NC(=O)C1(O)C(C)CC2C3CCC4=CC(=O)C=CC4(C)C3(F)C(O)CC21C (stereo unspecified) | 3.4
23 | CCCCCCNC(=O)C1(O)C(C)CC2C3CCC4=CC(=O)C=CC4(C)C3(F)C(O)CC21C (stereo unspecified) | 4.54
24 | CC(C)NC(=O)C1(O)C(C)CC2C3CCC4=CC(=O)C=CC4(C)C3(F)C(O)CC21C (stereo unspecified) | 2.43
25 | CC(C)CNC(=O)C1(O)C(C)CC2C3CCC4=CC(=O)C=CC4(C)C3(F)C(O)CC21C (stereo unspecified) | 3.01
26 | CC1CC2C3CCC4=CC(=O)C=CC4(C)C3(F)C(O)CC2(C)C1(O)C(=O)NCCO (stereo unspecified) | 1.51
27 | CCCCNC(=O)C1(O)C(C)CC2C3CCC4=CC(=O)C=CC4(C)C3(F)C(O)CC21C (stereo unspecified) | 3.1
28 | CCNC(=O)C1(O)C(C)CC2C3CCC4=CC(=O)C=CC4(C)C3(F)C(O)CC21C (stereo unspecified) | 2.07
29 | CC1CC2C3CCC4=CC(=O)C=CC4(C)C3(F)C(O)CC2(C)C1(O)C(=O)NC(CO)c1ccccc1 (stereo unspecified) | 2.89
30 | COC(=O)CNC(=O)C1(O)C(C)CC2C3CCC4=CC(=O)C=CC4(C)C3(F)C(O)CC21C (stereo unspecified) | 1.69

Experiment: not given
Conditions: not given

Row | SMILES | logP
31 | CC1CC2C3CCC4=CC(=O)C=CC4(C)C3(F)C(O)CC2(C)C1(O)C(=O)NCc1ccc(Cl)cc1 (stereo unspecified) | 3.71
32 | COc1cccc(CNC(=O)C2(O)CC3C4CCC5=CC(=O)C=CC5(C)C4(F)C(O)CC32C)c1 (stereo unspecified) | 3.15
33 | CC1CC2C3CCC4=CC(=O)C=CC4(C)C3(F)C(O)CC2(C)C1(O)C(=O)NCc1ccc([N+](=O)[O-])cc1 (stereo unspecified) | 3.37
34 | COc1ccc(CNC(=O)C2(O)C(C)CC3C4CCC5=CC(=O)C=CC5(C)C4(F)C(O)CC32C)cc1 (stereo unspecified) | 3.04
35 | COc1ccccc1CNC(=O)C1(O)C(C)CC2C3CCC4=CC(=O)C=CC4(C)C3(F)C(O)CC21C (stereo unspecified) | 3.09
36 | CC(C)CCCCNC(=O)C1(O)C(C)CC2C3CCC4=CC(=O)C=CC4(C)C3(F)C(O)CC21C (stereo unspecified) | 3.91
